Test results reported in patent US10544143B2, “4-azaindole compounds” (BRISTOL-MYERS SQUIBB COMPANY, priority 2017, dated 2020).
pIC50: −log10 of the molar value. Where two headings read alike, the source gives them in different places.

Tests used:
human TLR8 = human TLR8 (Homo sapiens (Human), UniProt Q9NR97); assay: TLR8 inhibition reporter assay (HEK-Blue SEAP); details: read-out: TLR8 IC50, R848 15.9 μM;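 also: SEAP driven by IFN-β minimal promoter carrying NF-κB and AP-1 sites, compounds dosed 0.05 nM to 50 µM for 22 h, inhibition scaled between agonist-plus-DMSO and reference-inhibitor wells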
Sequence of human TLR8 (Q9NR97 27-1041): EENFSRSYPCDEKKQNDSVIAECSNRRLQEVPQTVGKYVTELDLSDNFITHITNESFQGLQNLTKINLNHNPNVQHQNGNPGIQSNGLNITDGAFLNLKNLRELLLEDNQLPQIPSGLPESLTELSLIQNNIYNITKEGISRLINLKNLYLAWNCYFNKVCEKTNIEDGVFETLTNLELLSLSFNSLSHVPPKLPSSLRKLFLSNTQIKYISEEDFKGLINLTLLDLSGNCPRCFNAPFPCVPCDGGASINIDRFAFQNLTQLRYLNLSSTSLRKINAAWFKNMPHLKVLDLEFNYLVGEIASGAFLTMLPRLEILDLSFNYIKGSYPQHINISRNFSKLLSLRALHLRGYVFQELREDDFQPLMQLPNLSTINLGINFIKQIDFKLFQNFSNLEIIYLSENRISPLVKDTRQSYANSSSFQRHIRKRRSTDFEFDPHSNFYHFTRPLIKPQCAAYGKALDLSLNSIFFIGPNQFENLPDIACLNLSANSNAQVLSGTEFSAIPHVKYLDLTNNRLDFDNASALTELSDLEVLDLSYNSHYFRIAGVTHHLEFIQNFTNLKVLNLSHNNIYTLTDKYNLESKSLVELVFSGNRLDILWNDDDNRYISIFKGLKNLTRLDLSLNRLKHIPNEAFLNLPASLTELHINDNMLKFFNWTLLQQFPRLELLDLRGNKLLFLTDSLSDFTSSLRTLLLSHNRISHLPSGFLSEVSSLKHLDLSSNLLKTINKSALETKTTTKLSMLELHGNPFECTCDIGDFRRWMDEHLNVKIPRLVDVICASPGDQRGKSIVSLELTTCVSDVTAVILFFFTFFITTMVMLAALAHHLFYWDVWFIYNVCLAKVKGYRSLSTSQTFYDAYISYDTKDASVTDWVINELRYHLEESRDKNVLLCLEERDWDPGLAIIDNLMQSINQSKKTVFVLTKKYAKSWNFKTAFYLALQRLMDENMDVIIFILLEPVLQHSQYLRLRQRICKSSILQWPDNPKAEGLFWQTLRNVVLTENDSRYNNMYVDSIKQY

human TLR7 = human TLR7 (Homo sapiens (Human), UniProt Q9NYK1); assay: TLR7 inhibition reporter assay (HEK-Blue SEAP); type: cell-based; details: gardiquimod 7.5 μM
Sequence of human TLR7 (Q9NYK1 27-1049): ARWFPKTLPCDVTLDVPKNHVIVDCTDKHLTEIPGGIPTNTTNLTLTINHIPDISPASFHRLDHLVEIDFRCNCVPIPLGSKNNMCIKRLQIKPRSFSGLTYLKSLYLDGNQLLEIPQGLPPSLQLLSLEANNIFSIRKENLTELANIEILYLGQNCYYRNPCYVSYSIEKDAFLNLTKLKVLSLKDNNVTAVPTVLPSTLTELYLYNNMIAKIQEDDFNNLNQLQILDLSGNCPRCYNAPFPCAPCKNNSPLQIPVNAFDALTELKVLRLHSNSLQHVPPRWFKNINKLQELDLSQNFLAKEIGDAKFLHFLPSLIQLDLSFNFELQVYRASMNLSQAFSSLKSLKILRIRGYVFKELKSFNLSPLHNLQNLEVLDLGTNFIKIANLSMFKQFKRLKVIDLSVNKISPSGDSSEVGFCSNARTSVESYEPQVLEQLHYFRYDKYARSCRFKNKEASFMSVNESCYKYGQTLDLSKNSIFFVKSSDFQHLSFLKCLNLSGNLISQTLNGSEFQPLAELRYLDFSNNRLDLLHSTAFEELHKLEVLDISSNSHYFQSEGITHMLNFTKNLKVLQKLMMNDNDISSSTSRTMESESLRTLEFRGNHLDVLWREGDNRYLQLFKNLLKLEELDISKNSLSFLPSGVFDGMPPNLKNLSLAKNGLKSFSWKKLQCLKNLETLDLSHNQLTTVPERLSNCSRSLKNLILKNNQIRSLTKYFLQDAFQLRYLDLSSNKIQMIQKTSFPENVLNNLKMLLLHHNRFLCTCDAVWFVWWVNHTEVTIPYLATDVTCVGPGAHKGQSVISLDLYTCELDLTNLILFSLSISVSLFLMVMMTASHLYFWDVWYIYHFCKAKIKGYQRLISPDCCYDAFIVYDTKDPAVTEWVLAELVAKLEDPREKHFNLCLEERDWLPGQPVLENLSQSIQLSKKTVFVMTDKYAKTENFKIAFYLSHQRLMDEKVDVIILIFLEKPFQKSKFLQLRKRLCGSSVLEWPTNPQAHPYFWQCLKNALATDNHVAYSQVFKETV

human TLR9 = human TLR9 (Homo sapiens (Human), UniProt Q9NR96); assay: TLR9 inhibition reporter assay (HEK-Blue SEAP); details: read-out: TLR9 IC50, ODN2006 5 nM;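 also: SEAP driven by an IFN-β minimal promoter with NF-κB and AP-1 sites, read after 22 h, compounds dosed 0.05 nM–50 µM, inhibition scaled between agonist plus DMSO and reference-inhibitor wells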
Sequence of human TLR9 (Q9NR96 26-1032): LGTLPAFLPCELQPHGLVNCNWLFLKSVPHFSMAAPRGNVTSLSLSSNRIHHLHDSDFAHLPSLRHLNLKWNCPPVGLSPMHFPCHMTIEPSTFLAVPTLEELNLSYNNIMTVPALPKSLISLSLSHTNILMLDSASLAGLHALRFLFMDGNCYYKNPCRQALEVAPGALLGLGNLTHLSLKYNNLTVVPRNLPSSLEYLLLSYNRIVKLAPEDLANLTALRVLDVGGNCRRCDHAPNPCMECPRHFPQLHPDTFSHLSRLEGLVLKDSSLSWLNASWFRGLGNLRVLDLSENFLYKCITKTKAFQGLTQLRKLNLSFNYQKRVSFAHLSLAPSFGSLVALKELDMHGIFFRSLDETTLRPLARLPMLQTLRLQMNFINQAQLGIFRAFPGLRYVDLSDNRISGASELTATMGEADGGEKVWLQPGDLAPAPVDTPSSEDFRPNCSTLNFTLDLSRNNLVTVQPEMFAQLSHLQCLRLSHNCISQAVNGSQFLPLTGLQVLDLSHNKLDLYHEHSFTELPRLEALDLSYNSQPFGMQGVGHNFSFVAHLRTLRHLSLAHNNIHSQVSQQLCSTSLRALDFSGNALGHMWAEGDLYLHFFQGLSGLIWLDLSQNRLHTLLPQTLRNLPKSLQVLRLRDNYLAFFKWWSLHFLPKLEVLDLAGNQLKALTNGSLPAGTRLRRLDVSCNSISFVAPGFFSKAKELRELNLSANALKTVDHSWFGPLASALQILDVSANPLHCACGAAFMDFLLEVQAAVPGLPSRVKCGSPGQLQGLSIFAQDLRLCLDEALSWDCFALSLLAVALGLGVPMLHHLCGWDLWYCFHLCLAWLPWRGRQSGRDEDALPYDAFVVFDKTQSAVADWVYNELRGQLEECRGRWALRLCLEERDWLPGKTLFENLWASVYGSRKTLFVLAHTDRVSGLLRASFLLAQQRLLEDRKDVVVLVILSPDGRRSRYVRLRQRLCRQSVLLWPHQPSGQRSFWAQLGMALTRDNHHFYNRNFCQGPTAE

[1] = HEK-Blue cells overexpressing human TLR8, SEAP reporter
[2] = HEK-Blue cells overexpressing human TLR7, SEAP reporter
[3] = HEK-Blue cells overexpressing human TLR9, SEAP reporter

Structure (SMILES) | pIC50 (human TLR8; [1]) | pIC50 (human TLR7; [2]) | pIC50 (human TLR9; [3]) | pIC50 (human TLR8; HEK-Blue human TLR8 cells) | pIC50 (human TLR7; HEK-Blue human TLR7 cells) | pIC50 (human TLR9; HEK-Blue human TLR9 cells)
Cc1c(-c2[nH]c3ccc(C4CC5(CNC5)C4)nc3c2C(C)C)cn2ncnc2c1C [Example 745, 6-(3-isopropyl-5-(2-azaspiro[3.3]heptan-6-yl)-1H-pyrrolo[3,2-b]pyridin-2-yl)-7,8-dimethyl-[1,2,4]triazolo[1,5-a]pyridine] | 8.24 | 8.66 | 5.61 |  |  | 
Cc1c(-c2[nH]c3ccc(C4CC5(C4)CN(C(=O)CCN(C)C)C5)nc3c2C(C)C)cn2ncnc2c1C [Example 746, 1-(6-(2-(7,8-dimethyl-[1,2,4]triazolo[1,5-a]pyridin-6-yl)-3-isopropyl-1H-pyrrolo[3,2-b]pyridin-5-yl)-2-azaspiro[3.3]heptan-2-yl)-3-(dimethylamino)propan-1-one] | 8.00 | 8.96 | 5.51 |  |  | 
Cc1c(-c2[nH]c3ccc(N4[C@@H]5CC[C@H]4CN(C(=O)CN(C)C)C5)nc3c2C(C)C)cn2ncnc2c1C [Example 747] | 8.39 | 9.23 | 5.13 |  |  | 
Cc1c(-c2[nH]c3ccc(N4[C@@H]5CC[C@H]4CN(CCS(C)(=O)=O)C5)nc3c2C(C)C)cn2ncnc2c1C [Example 748] | 7.82 | 8.12 | 4.42 |  |  | 
Cc1c(-c2[nH]c3ccc(N4[C@@H](C)CN(CCC(N)=O)C[C@@H]4C)nc3c2C(C)C)cn2ncnc2c1C [Example 753] | 7.92 | […] | 4.55 |  |  | 
Cc1c(-c2[nH]c3ccc(N4C[C@H]5C[C@@H](C4)N5CCC(N)=O)nc3c2C(C)C)cn2ncnc2c1C [Example 756] | 8.22 | 8.41 | 5.04 |  |  | 
Cc1c(-c2[nH]c3ccc(N4C[C@H](C)N[C@@H](C)C4)nc3c2C(C)C)cn2ncnc2c1C [Example 757] | 8.72 | 9.15 | 5.28 |  |  | 
Cc1c(-c2[nH]c3ccc(N4C[C@H](C)N(CCC(N)=O)[C@@H](C)C4)nc3c2C(C)C)cn2ncnc2c1C [Example 758] | 8.77 | 9.05 | 4.74 |  |  | 
Cc1c(-c2[nH]c3ccc(N4C[C@H](C)N(CC(N)=O)[C@@H](C)C4)nc3c2C(C)C)cn2ncnc2c1C [Example 759] | 7.85 | 8.42 | 4.42 |  |  | 
Cc1c(-c2[nH]c3ccc(N4CCN(CCC(N)=O)[C@@H](C)C4)nc3c2C(C)C)cn2ncnc2c1C [Example 791] | 8.96 | 8.28 | 4.74 |  |  | 
Cc1c(-c2[nH]c3ccc(N4CCN(C(C)C)[C@@H](C)C4)nc3c2C(C)C)cn2ncnc2c1C [Example 792] | 9.00 | 8.40 | 5.07 |  |  | 
Cc1c(-c2[nH]c3ccc(N4C[C@H](C)N(CCCS(C)(=O)=O)C[C@@H]4C)nc3c2C(C)C)cn2ncnc2c1C [Example 795] |  |  |  | 8.09 | 7.92 | < 4.30
Cc1c(-c2[nH]c3ccc(N4CCN(C(=O)CN(C)C)C[C@@H]4C)nc3c2C(C)C)cn2ncnc2c1C [Example 801] |  |  |  | 9.25 | 9.24 | 4.96
Cc1c(-c2[nH]c3ccc(N4CCN(CC(C)(C)O)C[C@@H]4C)nc3c2C(C)C)cn2ncnc2c1C [Example 802] |  |  |  | 9.19 | 8.52 | 4.75
Cc1c(-c2[nH]c3ccc(N4CCN(CC(=O)N(C)C)C[C@@H]4C)nc3c2C(C)C)cn2ncnc2c1C [Example 803] |  |  |  | 8.40 | 8.37 | 4.40
Cc1c(-c2[nH]c3ccc(N4CCN(CCC(N)=O)C[C@@H]4C)nc3c2C(C)C)cn2ncnc2c1C [Example 804] |  |  |  | 9.25 | 8.92 | 4.74
Cc1c(-c2[nH]c3ccc(N4CCN(CCCS(C)(=O)=O)C[C@@H]4C)nc3c2C(C)C)cn2ncnc2c1C [Example 805] |  |  |  | 9.24 | 8.68 | 4.62
Cc1c(-c2[nH]c3ccc(N4CCN(CCCS(C)(=O)=O)C[C@H]4C)nc3c2C(C)C)cn2ncnc2c1C [Example 806] |  |  |  | 8.96 | 8.96 | 4.53
Cc1c(-c2[nH]c3ccc(N4CCN(CCC(N)=O)C[C@H]4C)nc3c2C(C)C)cn2ncnc2c1C [Example 807] |  |  |  | 8.89 | 9.02 | 4.79
Cc1c(-c2[nH]c3ccc(N4CCN(CC(N)=O)C[C@@H]4C)nc3c2C(C)C)cn2ncnc2c1C [Example 809] |  |  |  | 8.51 | 8.66 | 4.44
Cc1c(-c2[nH]c3ccc(N4CCN(CC#N)C[C@@H]4C)nc3c2C(C)C)cn2ncnc2c1C [Example 810] |  |  |  | 9.20 | 9.19 | 5.13
CNC(=O)CN1CCN(c2ccc3[nH]c(-c4cn5ncnc5c(C)c4C)c(C(C)C)c3n2)[C@@H](C)C1 [Example 812] |  |  |  | 8.44 | 8.66 | < 4.30
Cc1c(-c2[nH]c3ccc(N4CCN(C5COC5)C[C@@H]4C)nc3c2C(C)C)cn2ncnc2c1C [Example 813] |  |  |  | 8.04 | 8.43 | < 4.30

Further lines, results first:

pIC50 (human TLR8; [1]) | pIC50 (human TLR7; [2]) | pIC50 (human TLR9; [3]) | pIC50 (human TLR8; HEK-Blue human TLR8 cells) | pIC50 (human TLR7; HEK-Blue human TLR7 cells) | pIC50 (human TLR9; HEK-Blue human TLR9 cells) | Structure (SMILES)
9.28 | 9.42 | 4.99 |  |  |  | Cc1c(-c2[nH]c3ccc(N4[C@@H](C)CN(C(=O)CN(C)C)C[C@@H]4C)nc3c2C(C)C)cn2ncnc2c1C [Example 752]
7.57 | 8.38 | 5.12 |  |  |  | Cc1c(-c2[nH]c3ccc(N4C[C@H](C)N(C(=O)CN(C)C)[C@@H](C)C4)nc3c2C(C)C)cn2ncnc2c1C [Example 760]
7.85 | 8.05 | 5.09 |  |  |  | Cc1c(-c2[nH]c3ccc(N4C[C@H](C)N(C(=O)CCN(C)C)[C@@H](C)C4)nc3c2C(C)C)cn2ncnc2c1C [Example 761]
8.49 | 8.68 | 5.08 |  |  |  | Cc1c(-c2[nH]c3ccc(N4C[C@H](C)N(C(=O)CN(C)C)C[C@@H]4C)nc3c2C(C)C)cn2ncnc2c1C [Example 788]
8.43 | 8.49 | 4.88 |  |  |  | Cc1c(-c2[nH]c3ccc(N4C[C@H](C)N(C(=O)CCN(C)C)C[C@@H]4C)nc3c2C(C)C)cn2ncnc2c1C [Example 789]
9.07 | 9.38 | 5.06 |  |  |  | Cc1c(-c2[nH]c3ccc(N4CCN(C(=O)CCN(C)C)[C@@H](C)C4)nc3c2C(C)C)cn2ncnc2c1C [Example 790]
8.85 | 8.85 | 5.11 |  |  |  | Cc1c(-c2[nH]c3ccc(N4C[C@H](C)N(C(C)C)C[C@@H]4C)nc3c2C(C)C)cn2ncnc2c1C [Example 793]
 |  |  | 8.82 | 8.85 | 4.74 | Cc1c(-c2[nH]c3ccc(N4C[C@H](C)N(CCC(N)=O)C[C@@H]4C)nc3c2C(C)C)cn2ncnc2c1C [Example 794]
 |  |  | 7.82 | 8.22 | 4.95 | Cc1c(-c2[nH]c3ccc(N4C[C@@H](C)N(C(=O)CN(C)C)C[C@H]4C)nc3c2C(C)C)cn2ncnc2c1C [Example 796]
 |  |  | 7.85 | 8.00 | 4.76 | Cc1c(-c2[nH]c3ccc(N4C[C@@H](C)N(C(=O)CCN(C)C)C[C@H]4C)nc3c2C(C)C)cn2ncnc2c1C [Example 797]
 |  |  | 8.24 | 8.38 | 4.65 | Cc1c(-c2[nH]c3ccc(N4C[C@@H](C)N(CCC(N)=O)C[C@H]4C)nc3c2C(C)C)cn2ncnc2c1C [Example 798]
 |  |  | 7.68 | 8.30 | < 4.30 | Cc1c(-c2[nH]c3ccc(N4C[C@@H](C)N(CC(N)=O)C[C@H]4C)nc3c2C(C)C)cn2ncnc2c1C [Example 799]
 |  |  | 7.59 | 7.70 | < 4.30 | Cc1c(-c2[nH]c3ccc(N4C[C@@H](C)N(CC(N)=O)C[C@H]4C)nc3c2C(C)C)cn2ncnc2c1C [Example 800]
 |  |  | 8.85 | 9.72 | 5.05 | Cc1c(-c2[nH]c3ccc(N4CCN(C(=O)CN(C)C)C[C@H]4C)nc3c2C(C)C)cn2ncnc2c1C [Example 808]
 |  |  | 9.23 | 9.44 | 5.25 | Cc1c(-c2[nH]c3ccc(N4CCN(C(=O)CCN(C)C)C[C@@H]4C)nc3c2C(C)C)cn2ncnc2c1C [Example 811]
